The subject of one assay is hippocampal nerve cells. Description: Luminescence (photon count) of probes expressed in cultured hippocampal nerve cells after stimulation. The class given is cell-based, rat.
Another assay relates to polymerized actin. Description: Rhodamine-phalloidin staining of polymerized actin in HEK293T cells. The class given is cell-based. The settings on record: varying concentrations of inhibitor. The method, then:
FIG. 8 is a photograph showing results of Example 9. The photograph is an image of polymerized actin stained with rhodamine-phalloidin in the presence of varying concentrations of a polymerization inhibitor;
HEK293T cells were treated with latrunculin A and then fixed in 4% paraformaldehyde, and only polymerized actin was stained using F-Actin Visualization Biochem Kit (Cosmo Bio Co., Ltd.).
An image of polymerized actin stained with rhodamine-phalloidin in the presence of varying concentrations of the polymerization inhibitor was confirmed.

The next assay deals with actin polymerization. Description: Luminescence of IRES-linked split luciferase-actin fusion proteins in HEK293 cells with actin polymerization inhibitor. The class given is cell-based. The settings on record: inhibitor added 3 hours before measurement, varying concentrations. An excerpt: FIG. 7 is a graph showing results of Example 8. The graph depicts the relationship between an actin polymerization inhibitor concentration and luminescence from split luciferase-actin fusion proteins bound via an IRES sequence and expressed in HEK293 cells;
For preparing a form suitable for transgenic mouse preparation, plasmids were constructed for a fusion protein comprising two fusion proteins bound via an IRES sequence (the resultant fusion protein is referred to as a fusion protein 13: LucN-Actin-IRES-LucC-actin). LucC-Actin and LucN-Actin are thereby translated from one mRNA and expressed in cells. The gene transfer was performed in the same way as in Example 1. Moreover, in this experiment, an actin polymerization inhibitor latrunculin A was added into a medium 3 hours before luminescence measurement. Moreover, the luminescence measurement used a luminometer AEQUORIA (Hamamatsu Photonics K.K.).
This is the evidence that the luminescence of the prepared protein serves as an index for actin polymerization.

Method for hippocampal nerve cells: On day 18 of pregnancy, a rat fetus was taken out of a pregnant rat, and the brain was separated therefrom in cold PBS. Furthermore, brain slices containing hippocampal nerve cells were separated from the cerebrum. The separated hippocampal cells were reacted with 0.125% trypsin (protease) at room temperature for 20 minutes in a test tube such that adhesion factors on the cell surface were degraded to attenuate cell-cell adhesion. Then, the test tube was left standing for trypsin removal. After precipitation of the brain slices in the bottom of the test tube, the trypsin solution as a supernatant was removed by aspiration. Subsequently, a DMEM medium containing 10% serum was added to the test tube. The test tube was left standing again, and the supernatant was removed. The brain slices were dissociated into individual cells by repeating approximately 10 times aspiration and dropping using a plastic dropper. Then, the cells were cultured in a plastic dish.
On culture day 4, the plasmid encoding the fusion protein 1 of Example 1 was gene-transferred into the cells. The gene transfer method was performed using Lipofectamine 2000 in the same way as in the HEK293 cells. Two days after the gene transfer, the medium was replaced by an Opti-MEM medium (Invitrogen Corp.) containing 0.5 mM luciferin EF (Promega Corp.), a luminescent substrate of luciferase. The luminescence intensity was measured using a luminometer AEQUORIA (Hamamatsu Photonics K.K.). This apparatus counts the number of photons generated from cells during culture placed together with a plastic dish in a dark box. The measurement was performed for 1 consecutive hour, and the luminescence intensity at 1-minute intervals was plotted on the ordinate of a graph. Immediately before the measurement, the cells were stimulated with forskolin, glutamate, KCl, or the like.

Take `[Cl-].[K+]` [KCl, potassium chloride]: the “increase in luminescence intensity by KCl stimulation” value in the assay on hippocampal nerve cells (fusion protein 1 expressed in nerve cells, compared to before addition of KCl) was “approximately 6 times”. In addition, the “effect of stimulation on luminescence intensity” value in the assay with hippocampal nerve cells (nerve cells expressing fusion protein 5, 50 mM KCl, alone or with additive) is listed as “increases the luminescence intensity”.
Consider `C/C1=C/C(=O)O[C@@H]2C[C@@H](CC[C@H](C)/C=C\C=C\CC1)O[C@@](O)([C@@H]1CSC(=O)N1)C2` [latrunculin A], for which, in the assay with polymerized actin, the “polymerized actin (rhodamine-phalloidin staining)” value is “decreased in a concentration-dependent manner”. Besides, in the assay with actin polymerization, the “luminescence of split luciferase-actin probe” value is “decreased in a concentration-dependent manner”.
On to “wild-type luciferase: wild-type firefly luciferase (Promega Corp.), control experiment”, for which the “response of luminescence to KCl” value with hippocampal nerve cells (probe expressed in nerve cells, KCl stimulation) is “does not exhibit the response to KCl”.

The values above are taken from US20110154513A1, “PROBE FOR VISUALIZING NEURAL ACTIVITY” (University of Toyama, priority 2008, published 2011).
